Patent US5427922A (Takeda Chemical Industries, Ltd., priority 1992, dated 1995)
Residue numbers refer to the chain shown, from its start.

Columns and labels:
Ang II receptor = details: cited from earlier work
[1] = target: T1, Ang II type 1 receptor of human heart origin (Homo sapiens, UniProt P30556); test: Binding of radiolabeled Ang II (competition) using membrane fraction of control CHO/pHARt306 cells; details: for Competition; IC50 [-log(M)]: membrane fraction of CHO/pHARt306 (human heart origin), [125I]-Ang II, 22° C., 45 minutes
T1 sequence (P30556 1-359): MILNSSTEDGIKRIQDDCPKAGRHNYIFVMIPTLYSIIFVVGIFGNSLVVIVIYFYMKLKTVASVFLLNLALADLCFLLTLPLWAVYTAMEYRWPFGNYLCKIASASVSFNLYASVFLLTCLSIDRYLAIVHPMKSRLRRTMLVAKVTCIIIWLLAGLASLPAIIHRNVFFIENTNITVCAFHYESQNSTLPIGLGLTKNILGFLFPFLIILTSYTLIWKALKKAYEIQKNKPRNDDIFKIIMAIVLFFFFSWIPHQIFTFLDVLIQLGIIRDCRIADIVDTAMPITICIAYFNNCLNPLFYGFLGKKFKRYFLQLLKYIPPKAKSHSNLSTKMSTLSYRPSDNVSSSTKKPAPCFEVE
Procedure: All measurements were performed in a series of three runs. […] An aliquot of membrane fraction equivalent to 10 μg of protein was suspended in a 0.1% (w/v) BSA solution containing 25 mM Tris (pH 7.6) and 5 mM magnesium chloride, to yield a 194 μl suspension. […] After 45 minutes of reaction, the reaction mixture was aspirated onto a glass filter, which was washed with 4 ml of ice-cooled Tris (pH 7.6), and the residual radioactivity on the glass filter was measured using a γ-ray counter. The final sample concentration was varied over a range of from 1 pM to 10 μM. In the measurement, the amount of non-specific binding was defined as 0%, and the maximum mount of binding in the absence of sample defined as 100%. With this regard, the -log (M) value of the sample concentration (M) resulting in 50% binding was defined as IC50 value. A membrane fraction was also extracted from control CHO/pHARt306 cells in the same manner as above, and assayed using the same assay system.

[2] = target: T2, Ang II type 1 receptor of human placental origin (Homo sapiens, UniProt P30556); test: Binding of radiolabeled Ang II (competition) using membrane fraction of CHO/pHARp306 cells; details: [125I]-Ang II, 22° C., 45 minutes
T2 sequence (P30556 1-359 Q187R/F204S/L205C/K232N/K240R/L268Q/C289W/R311K/Y312D/F313I): T1 sequence (P30556 1-359) with Q187R, F204S, L205C, K232N, K240R, L268Q, C289W, R311K, Y312D, F313I
Procedure: All measurements were performed in a series of three runs. […] An aliquot of membrane fraction equivalent to 10 μg of protein was suspended in a 0.1% (w/v) BSA solution containing 25 mM Tris (pH 7.6) and 5 mM magnesium chloride, to yield a 194 μl suspension. […] After 45 minutes of reaction, the reaction mixture was aspirated onto a glass filter, which was washed with 4 ml of ice-cooled Tris (pH 7.6), and the residual radioactivity on the glass filter was measured using a γ-ray counter. The final sample concentration was varied over a range of from 1 pM to 10 μM. In the measurement, the amount of non-specific binding was defined as 0%, and the maximum mount of binding in the absence of sample defined as 100%. With this regard, the -log (M) value of the sample concentration (M) resulting in 50% binding was defined as IC50 value.

[3] = tested on: reactions of KCl, norepinephrine, isoproterenol, vasopressin, bradykinin, acetylcholine or 5-HT; details: at suppressive doses for a high concentration (10 μM) of Ang II; cited from earlier work
ACE = details: at suppressive doses for a high concentration (10 μM) of Ang II; cited from earlier work
type 1 receptors = details: cited from earlier work
[4] = target: T3, Ang II type 1 receptor from human placenta (Homo sapiens, UniProt P30556); test: Radio-labeled Ang II binding activity in animal cells (COS7/pHARp306) expressing full-length Ang II type 1 receptor gene from human placenta; details: 10 μM agonist or antagonist added; 100 pM [125I]-Ang II; room temperature, 60 minutes; control (none) 84,148 cpm
T3 sequence (P30556 1-359 Q187R/F204S/L205C/K232N/K240R/L268Q/C289W/R311K/Y312D/F313I): T1 sequence (P30556 1-359) with Q187R, F204S, L205C, K232N, K240R, L268Q, C289W, R311K, Y312D, F313I
Procedure: To each well of a 6 well petri dish, 2 ml of a DMEM medium (produced by DIFCO) containing 5% (v/v) FCS was added, and 5×10^4 COS7 cells were seeded. After incubation at 37° C. in the presence of 5% carbon dioxide for two days, the medium was aspirated and twice washed with DMEM medium.

type 2 receptors = details: cited from earlier work
[5] = target: T4, full-length Ang II type 1 receptor of human placental origin (Homo sapiens, UniProt P30556); details: 10 μM forskolin in place of Ang II; CHO/pHARp306
T4 sequence (P30556 1-359 Q187R/F204S/L205C/K232N/K240R/L268Q/C289W/R311K/Y312D/F313I): T1 sequence (P30556 1-359) with Q187R, F204S, L205C, K232N, K240R, L268Q, C289W, R311K, Y312D, F313I
Procedure: (§1) To each well of a 24 well petri dish, a DMEM medium containing 10% (v/v) dialyzed FCS and 35 μg/ml L-proline was added, and 1×10^5 CHO/pHAR306 cells were inoculated. […] After the reaction mixture was removed using an aspirator, 500 μl of a 5% (w/v) trichloroacetic acid solution was added to each well to stop the reaction. The amount of cAMP was measured by EIA (cAMP enzyme immunoassay system, produced by Amersham).

[6] = target: T5, full-length Ang II type 1 receptor of human heart origin (Homo sapiens, UniProt P30556); details: CHO/pHARt306
T5 sequence (P30556 1-359): T1 sequence (P30556 1-359)
Procedure: as §1

[7] = target: T4, full-length Ang II type 1 receptor of human placental origin; test: Ang II binding activity of isolated CHO cell clone (method of Example 9); details: CHO/pHARp306 clone
Procedure: After the mixture was thrice washed with TSMB buffer, cells were solubilized with 1N sodium hydroxide (1 ml), and their radioactivity was determined using a γ-ray counter.

[8] = target: T4, full-length Ang II type 1 receptor of human placental origin; test: Changes in intracellular inositol phosphate (IPs) concentration in CHO/pHARp306 cells; format: cell-based
Procedure: (§2) To each well of a 12 well petri dish, a DMEM medium containing 10% (v/v) dialyzed-FCS and 35 μg/ml L-proline was added, and 1×10^5 CHO/pHAR306 cells were inoculated. One day later, the medium was replaced with the same medium but containing 1 μCi/ml [^3 H]-labeled inositol (Amersham), and cultivation was continued for 24 hours. The petri dish was twice washed with a PBS buffer (FLOW Laboratories) containing 0.2% (w/v) BSA and then kept standing for 30 minutes, after which it was kept standing at 37° C. for 30 minutes in the presence of the same buffer but containing 10 mM lithium chloride. […] When the reaction time exceeded 30 seconds, the reaction mixture was removed using an aspirator, after which 1 ml of a 5% (w/v) trichloroacetic acid solution was added to each well to stop the reaction. When the reaction time was 5 to 30 seconds, 1 ml of a 10% (w/v) trichloroacetic acid solution was injected directly to each well to stop the reaction. The [^3 H]-labeled inositol phosphate (IPs) was separated using ion exchange column AG 1-X8 (Bio-Rad Laboratories). […] The radioactivity of each fraction was determined using a liquid scintillation counter.

[9] = target: T5, full-length Ang II type 1 receptor of human heart origin; details: CHO/pHARt306; remark: listed apart in the source
Procedure: as §2

[10] = tested on: full-length Ang II type 1 receptor from human placenta; test: Change in intracellular calcium ion concentration in CHOdhfr-/pHARp206 cells (Fura-2AM fluorescence); format: cell-based; details: final concentration 1 μM, 37° C.
Procedure: To each of two collagen-treated slide glasses (1×4 cm) in a 6 cm petri dish, 4 ml of an ASF104 medium (produced by Ajinomoto) containing 5% (v/v) FCS (fetal calf serum) was added, and 5×10^5 CHOdhfr- cells were seeded. After incubation at 37° C. in the presence of 5% carbon dioxide for one day, the medium was aspirated and twice washed with ASF104 medium. 5 μg of the above plasmid pHARp206 was dissolved in 50 μl of HBS buffer (8.0 g/l sodium chloride, 380 mg/l potassium chloride, 200 mg/l disodium monohydrogen phosphate, 5.9 g/l HEPES, 15 mg/l calcium chloride dihydrate, 10 mg/l magnesium chloride hexahydrate, pH 7.45). […]
After the above transformant cells CHOdhfr-/pHARp206 were twice washed with HEPES buffer (140 mM sodium chloride, 5 mM potassium chloride, 1 mM magnesium sulfate, 1 mM disodium monohydrogen phosphate, 1 mM calcium chloride, 25 mM glucose, 25 mM HEPES; pH 7.2), 4 ml of a HEPES buffer containing 4 μM Fura-2AM (Dojin Kagaku) was added, and the mixture was kept standing at 15° C. in the dark for 80 minutes. […] Fluorescence at a wavelength of 505 nm, generated upon excitation with ultraviolet rays of wavelengths of 340 nm and 380 nm, was measured.

Question: Which “Ang II receptor antagonist activity” value (Ang II receptor) does the source give for CCCCc1nc(Cl)c(CC(=O)[O-])n1Cc1ccccc1[N+](=O)[O-].[Na+] [CV2961] here?
Answer: found to possess Ang II receptor antagonist activity

Question: For CCOc1nc2cccc(C(=O)O)c2n1Cc1ccc(-c2ccccc2-c2nn[nH]n2)cc1 [CV-11974], which IC50 ([1]; read-out: Competition, IC50 [-log(M)] (converted)) is on record?
Answer: 3.31e-10 M

Question: What about the “Competition; IC50 [-log(M)], column A (second; B in text)” value [2] of the same compound?
Answer: 9.61 -log(M)

Question: Which results are given for CCCCc1nc(Cl)c(CO)n1Cc1ccc(-c2ccccc2-c2nn[nH]n2)cc1 [DuP753]?
Answer: effect on reactions of KCl, norepinephrine, isoproterenol, vasopressin, bradykinin, acetylcholine or 5-HT [3]: no effect; effect on ACE action (ACE): no effect; specificity of action on Ang II receptors (Ang II receptor; vascular wall, adrenal cortex and other organs): act specifically on Ang II receptors in the vascular wall, adrenal cortex and other organs to suppress Ang II action only; antagonism of type 1 receptors (type 1 receptors): antagonistic

Question: What does the source list for Cc1cc(Cn2cnc3c2CC(C(=O)O)N(C(=O)C(c2ccccc2)c2ccccc2)C3)ccc1N (stereo not drawn) [PD123177]?
Answer: Radioactivity (bound [125I]-labeled Ang II) [4]: 69,980 cpm; antagonism of type 2 receptors (type 2 receptors): antagonistic; Competition; IC50 [-log(M)] [1]: < 6.00 -log(M); Competition; IC50 [-log(M)], column A (second; B in text) [2]: 5.49 -log(M)

Question: With C=C[C@@]1(C)CC(=O)[C@]2(O)[C@@]3(C)[C@@H](O)CCC(C)(C)[C@@H]3[C@H](O)[C@H](OC(C)=O)[C@@]2(C)O1 [forskolin] as the compound, how does the “formation of cAMP” value [5] read?
Answer: about 80 pmol/well

Question: What about the “formation of cAMP” value ([6]; 10 μM forskolin in place of Ang II) of the same compound?
Answer: about 80 pmol/well

Question: Which “Radioactivity (bound [125I]-labeled Ang II)” value [4] does the source give for Ang II here?
Answer: 676 cpm

Question: And the “suppression of forskolin-stimulated cAMP production” value ([6]; 1 pM to 10 μM Ang II plus 10 μM forskolin, 10 minutes, FIG. 8A)?
Answer: cAMP production suppression depending on Ang II concentration

Question: And the “affinity to Ang II” value [7]?
Answer: high affinity

Question: And the “total IPs production, dose response” value ([8]; 20 minutes after stimulation, final Ang II 1 pM to 10 μM, FIG. 7B)?
Answer: IPs production was suppressed in response to stimulation with high concentrations of Ang II

Question: And the “IPs production, time course” value ([8]; Ang II 100 nM, 37° C., FIG. 6)?
Answer: a transient rise in IP3 concentration occurred, followed by formation of IP2 and IP1 in this order

Question: What about the “total IPs production, dose response” value ([9]; 20 minutes after stimulation, final Ang II 1 pM to 10 μM, FIG. 7A) of the same compound?
Answer: IPs production was not suppressed even in the presence of high concentrations of Ang II

Question: What about the “IPs production, time course” value ([9]; Ang II 100 nM, 37° C.) of the same compound?
Answer: the same IPs production pattern as with CHO/pHARp306 cells

Question: Which “Radioactivity (bound [125I]-labeled Ang II)” value [4] does the source give for “Ang III: amino acid number of Ang III is lower by 1 than that of Ang II; used as agonist” here?
Answer: 670 cpm

Question: What about the “Competition; IC50 [-log(M)]” value [1] of the same compound?
Answer: 7.57 -log(M)

Question: And the “Competition; IC50 [-log(M)], column A (second; B in text)” value [2]?
Answer: 9.07 -log(M)

Question: With “endothelin 1: endothelin 1 (CSCSSLMDKECVYFCHLDIIW)” as the compound, how does the “change in fluorescence (intracellular Ca ion concentration)” value [10] read?
Answer: no change occurred in fluorescence
